Series [1] is described as follows: Safety: adverse events by NCI-CTCAE v4.0, phase 1 study Part 1. Type of series: in vivo, human. On the procedure: We defined the dose-limiting toxicity (DLT) period as the first 28 days of each dose-escalation cohort’s treatment cycle (DLT window). […] Non-hematologic DLTs included grade ≥3 nausea, vomiting, or diarrhea enduring >48 hours despite standard medical management, grade 3 fatigue persisting >7 days or grade 4 fatigue, any grade ≥3 metabolic laboratory abnormalities that are not controlled within 48 hours by standard medical management.

The nature of series [2]: Plasma pharmacokinetics of trametinib and dabrafenib at steady state (LC-MS/MS, noncompartmental). The following applies: for Cmax / AUC(0-t) / Tmax: human, plasma, oral. The series is classed as in vivo, human. On the procedure:
We, therefore, collected samples on these days to perform dabrafenib and trametinib PK analysis.
We determined plasma concentrations of trametinib, dabrafenib, and hydroxy- and desmethyl-dabrafenib metabolites with a validated assay using liquid-liquid extraction of samples spiked with the stable isotope internal standards for each analyte followed by analysis using LC-MS/MS detection. The validated concentration ranges for quantitation were 0.250 to 250 ng/mL for trametinib and 1.00 to 1,000 ng/mL for dabrafenib and its metabolites. We calculated concentrations using a linear regression calibration model with a 1/x^2 weighting factor.
The following PK parameters were estimated: maximum observed plasma concentration (Cmax), time to reach Cmax (tmax), area-under-the-plasma concentration-time curve (AUC), terminal phase half-life (t1/2,z), and apparent total body clearance (CL/F). We performed noncompartmental analyses for PK parameter estimation using Phoenix® WinNonlin® version 6.4 or later software (Certara™, Princeton, NJ). […] We prepared descriptive statistics, tables, and graphs using Phoenix® WinNonlin® and Prism version 9.1.1 (GraphPad Software, San Diego, CA).

[3] abbreviates: trametinib 2 mg QD, Cycle 2 Day 7 with AMG 232, Arm 2 cohort 1 (AMG 232 120 mg), geometric mean (CV%).
[4] abbreviates: trametinib 2 mg QD, Cycle 2 Day 7 with AMG 232, Arm 2 cohort 3 (AMG 232 240 mg), geometric mean (CV%).

Read-outs that look alike come from different tables or passages of the source. Marks after values point to notes of the source that are not given here.

Results on two compounds are retold here after PMC9395504 (Investigational New Drugs, 2022).

Regarding `CC(C)(C)c1nc(-c2cccc(NS(=O)(=O)c3c(F)cccc3F)c2F)c(-c2ccnc(N)n2)s1` [dabrafenib], the “Patients discontinuing dabrafenib due to AEs” value in series [1] (10 patients in Arm 1, n=2) came to 20%. For the same compound, the “Effect of AMG 232 on dabrafenib exposures” value in series [2] (dabrafenib and trametinib with and without AMG 232) is on record as “not significantly altered”. Moreover, the Cmax – broadly, the highest concentration seen after dosing – in series [2] (150 mg BID, dabrafenib 150 mg BID, Cycle 1 Day 21, T + D without AMG 232, Arm 1 cohort 1 (AMG 232 120 mg), geometric mean (CV%)) amounted to 1740 ng/mL; in series [2] (150 mg BID, dabrafenib 150 mg BID, Cycle 1 Day 21, T + D without AMG 232, Arm 1 cohort 2 (AMG 232 180 mg), geometric mean (CV%)), 3310 ng/mL; in series [2] (dabrafenib 150 mg BID, Cycle 2 Day 7, T + D with AMG 232, Arm 1 cohort 1 (AMG 232 120 mg), geometric mean (CV%)), 1200 ng/mL; in series [2] (dabrafenib 150 mg BID, Cycle 2 Day 7, T + D with AMG 232, Arm 1 cohort 2 (AMG 232 180 mg), geometric mean (CV%)), 1750 ng/mL. In addition, the AUC(0-t) is 4840 ng·h/mL in series [2] (150 mg BID, dabrafenib 150 mg BID, Cycle 1 Day 21, T + D without AMG 232, Arm 1 cohort 1 (AMG 232 120 mg), geometric mean (CV%), read-out: AUC6hr); 7450 ng·h/mL in series [2] (150 mg BID, dabrafenib 150 mg BID, Cycle 1 Day 21, T + D without AMG 232, Arm 1 cohort 2 (AMG 232 180 mg), geometric mean (CV%), read-out: AUC6hr); 3640 ng·h/mL in series [2] (dabrafenib 150 mg BID, Cycle 2 Day 7, T + D with AMG 232, Arm 1 cohort 1 (AMG 232 120 mg), geometric mean (CV%), read-out: AUC6hr); 4910 ng·h/mL in series [2] (dabrafenib 150 mg BID, Cycle 2 Day 7, T + D with AMG 232, Arm 1 cohort 2 (AMG 232 180 mg), geometric mean (CV%), read-out: AUC6hr). Besides, the time of peak concentration (Tmax) (as a rule, the time at which the peak concentration occurs) in series [2] (150 mg BID, dabrafenib 150 mg BID, Cycle 1 Day 21, T + D without AMG 232, Arm 1 cohort 2 (AMG 232 180 mg), median (min-max), read-out: tmax) is 1 h; in series [2] (dabrafenib 150 mg BID, Cycle 1 Day 21, T + D without AMG 232, Arm 1 cohort 1 (AMG 232 120 mg), median (min-max), read-out: tmax), 1 h; in series [2] (dabrafenib, cycle 1, day 21, without AMG 232 co-administration, read-out: median tmax), 1 h.

In the case of `CC(=O)Nc1cccc(-n2c(=O)n(C3CC3)c(=O)c3c(Nc4ccc(I)cc4F)n(C)c(=O)c(C)c32)c1` [trametinib], in series [1] (all 31 patients, n=6), the “Patients discontinuing trametinib due to AEs” value worked out at 19%. The “Effect of AMG 232 co-administration on trametinib PK” value in series [2] (cycle 2 day 7 vs cycle 1 day 21) is “does not appear to affect”. Besides, the Cmax was 21.5 ng/mL in series [2] (2 mg, trametinib 2 mg QD, Cycle 1 Day 21 without AMG 232, Arm 2 cohort 1 (AMG 232 120 mg), geometric mean (CV%)); 25.3 ng/mL in series [2] (2 mg, trametinib 2 mg QD, Cycle 1 Day 21 without AMG 232, Arm 2 cohort 2 (AMG 232 180 mg), geometric mean (CV%)); 22.1 ng/mL in series [2] (2 mg, trametinib 2 mg QD, Cycle 1 Day 21 without AMG 232, Arm 2 cohort 3 (AMG 232 240 mg), geometric mean (CV%)); 20.1 ng/mL in series [2] (trametinib 2 mg QD, Cycle 1 Day 21 without AMG 232, Arm 1 cohort 1 (AMG 232 120 mg), geometric mean (CV%)); 24.1 ng/mL in series [2] (trametinib 2 mg QD, Cycle 1 Day 21 without AMG 232, Arm 1 cohort 2 (AMG 232 180 mg), geometric mean (CV%)); 22.4 ng/mL in series [2] (trametinib 2 mg QD, Cycle 2 Day 7 with AMG 232, Arm 1 cohort 1 (AMG 232 120 mg), geometric mean (CV%)). Besides, the maximum concentration (Cmax) in series [2] (trametinib 2 mg QD, Cycle 2 Day 7 with AMG 232, Arm 1 cohort 2 (AMG 232 180 mg), geometric mean (CV%)) turned out to be 25.9 ng/mL; in series [2] (setting [3]), 24.8 ng/mL; in series [2] (trametinib 2 mg QD, Cycle 2 Day 7 with AMG 232, Arm 2 cohort 2 (AMG 232 180 mg), n = 1), 21.8 ng/mL; in series [2] (setting [4]), 24.3 ng/mL. In addition, the AUC(0-t) is 370 ng·h/mL in series [2] (2 mg, trametinib 2 mg QD, Cycle 1 Day 21 without AMG 232, Arm 2 cohort 1 (AMG 232 120 mg), geometric mean (CV%), read-out: AUC24hr); 326 ng·h/mL in series [2] (trametinib 2 mg QD, Cycle 1 Day 21 without AMG 232, Arm 1 cohort 1 (AMG 232 120 mg), geometric mean (CV%), read-out: AUC24hr); 362 ng·h/mL in series [2] (trametinib 2 mg QD, Cycle 1 Day 21 without AMG 232, Arm 1 cohort 2 (AMG 232 180 mg), geometric mean (CV%), read-out: AUC24hr); 338 ng·h/mL in series [2] (trametinib 2 mg QD, Cycle 2 Day 7 with AMG 232, Arm 1 cohort 1 (AMG 232 120 mg), geometric mean (CV%), read-out: AUC24hr); 402 ng·h/mL in series [2] (trametinib 2 mg QD, Cycle 2 Day 7 with AMG 232, Arm 1 cohort 2 (AMG 232 180 mg), geometric mean (CV%), read-out: AUC24hr); 463 ng·h/mL in series [2] (trametinib 2 mg QD, Cycle 2 Day 7 with AMG 232, Arm 2 cohort 2 (AMG 232 180 mg), n = 1, read-out: AUC24hr). Also, the time to peak (Tmax) in series [2] (2 mg, trametinib 2 mg QD, Cycle 1 Day 21 without AMG 232, Arm 2 cohort 2 (AMG 232 180 mg), median (min-max), read-out: tmax) is 4 h; in series [2] (2 mg, trametinib 2 mg QD, Cycle 1 Day 21 without AMG 232, Arm 2 cohort 3 (AMG 232 240 mg), median (min-max), read-out: tmax) it was 2 h; in series [2] (trametinib 2 mg QD, Cycle 1 Day 21 without AMG 232, Arm 1 cohort 1 (AMG 232 120 mg), median (min-max), read-out: tmax) it was 2 h; in series [2] (trametinib 2 mg QD, Cycle 1 Day 21 without AMG 232, Arm 1 cohort 2 (AMG 232 180 mg), median (min-max), read-out: tmax) it was 2 h; in series [2] (trametinib 2 mg QD, Cycle 2 Day 7 with AMG 232, Arm 1 cohort 1 (AMG 232 120 mg), median (min-max), read-out: tmax), 2 h; in series [2] (trametinib 2 mg QD, Cycle 2 Day 7 with AMG 232, Arm 1 cohort 2 (AMG 232 180 mg), median (min-max), read-out: tmax), 2 h. Further, the Tmax in series [2] (trametinib 2 mg QD, Cycle 2 Day 7 with AMG 232, Arm 2 cohort 1 (AMG 232 120 mg), median (min-max), read-out: tmax) was 2 h; in series [2] (trametinib 2 mg QD, Cycle 2 Day 7 with AMG 232, Arm 2 cohort 2 (AMG 232 180 mg), n = 1, read-out: tmax), 2 h; in series [2] (trametinib 2 mg QD, Cycle 2 Day 7 with AMG 232, Arm 2 cohort 3 (AMG 232 240 mg), median (min-max), read-out: tmax), 2 h; in series [2] (trametinib, cycle 2, day 7, with AMG 232 co-administration, across dose cohorts, read-out: median tmax), 1 to 3 h. For the same compound, the AUC24hr in series [2] (trametinib 2 mg QD, Cycle 1 Day 21 without AMG 232, Arm 2 cohort 2 (AMG 232 180 mg), geometric mean (CV%)) was 471 (26.7%) n = 5 hr•ng/mL; in series [2] (trametinib 2 mg QD, Cycle 1 Day 21 without AMG 232, Arm 2 cohort 3 (AMG 232 240 mg), geometric mean (CV%)), 385 (22.9%) n = 6 hr•ng/mL; in series [2] (setting [3]), 468 (23.5%)^a n = 3 hr•ng/mL; in series [2] (setting [4]), 351 (41.9%)^a n = 4 hr•ng/mL. For the same compound, the median tmax in series [2] (trametinib, cycle 1, day 21, without AMG 232 co-administration, across dose cohorts) was 2 h.
